Tests used:
[1] = 100 kPa, Liquid; for viscosity: Cone and plate viscometry; for mass density: Vibrating tube method
[2] = wn = mass fraction of the nth substance listed; conditions: 100 kPa, Liquid, w1 = 0.8465; for viscosity: Cone and plate viscometry; for mass density: Vibrating tube method

CCCCCCCCCCCC [dodecane]
[1]
Conditions | mass density [kg/m3] | viscosity [mPa·s]
288.15 K | 753.43 | 1.58
293.15 K | 749.81 | 1.47
298.15 K | 746.18 | 1.35
303.15 K | 742.55 | 1.24
308.15 K | 738.91 | 1.14
313.15 K | 735.26 | 1.06
318.15 K | 731.61 | 0.99
323.15 K | 727.95 | 0.93
328.15 K | 724.29 | 0.87
333.15 K | 720.61 | 0.82

CC(CC(C)(C)C)CP(=O)([O-])CC(C)CC(C)(C)C.CCCCCCCCCCCCCC[P+](CCCCCC)(CCCCCC)CCCCCC + O
[2]
Conditions | mass density [kg/m3] | viscosity [mPa·s]
288.15 K | 921.09 | 286.96
293.15 K | 917.76 | 211.13
298.15 K | 914.4 | 156.74
303.15 K | 911.03 | 119.54
308.15 K | 907.66 | 93.22
313.15 K | 904.29 | 74.08
318.15 K | 900.95 | 60.01
323.15 K | 897.66 | 49.03
328.15 K | 894.18 | 40.7
333.15 K | 890.61 | 34.16

CC(CC(C)(C)C)CP(=O)([O-])CC(C)CC(C)(C)C.CCCCCCCCCCCCCC[P+](CCCCCC)(CCCCCC)CCCCCC
[1]
Conditions | mass density [kg/m3] | viscosity [mPa·s]
288.15 K | 890.86 | 1953
293.15 K | 887.72 | 1446.3
298.15 K | 884.55 | 1058.2
303.15 K | 881.54 | 782.72
308.15 K | 878.58 | 587.62
313.15 K | 875.62 | 447.95
318.15 K | 872.67 | 346.95
323.15 K | 869.72 | 272.37
328.15 K | 866.77 | 217.4
333.15 K | 863.87 | 175.07
338.15 K | 860.99 | –
343.15 K | 858.1 | –
348.15 K | 855.22 | –
353.15 K | 852.33 | 80.99
358.15 K | 849.44 | –
363.15 K | 846.56 | –
373.15 K | – | 42.79
393.15 K | – | 24.53
413.15 K | – | 15.44
433.15 K | – | 10.17
